The values that follow come from patent US20070105820A1 (priority 2005, published 2007).

The structures appear in SMILES notation.

Chain of Nav1.2 (P04775 whole entry, looked up): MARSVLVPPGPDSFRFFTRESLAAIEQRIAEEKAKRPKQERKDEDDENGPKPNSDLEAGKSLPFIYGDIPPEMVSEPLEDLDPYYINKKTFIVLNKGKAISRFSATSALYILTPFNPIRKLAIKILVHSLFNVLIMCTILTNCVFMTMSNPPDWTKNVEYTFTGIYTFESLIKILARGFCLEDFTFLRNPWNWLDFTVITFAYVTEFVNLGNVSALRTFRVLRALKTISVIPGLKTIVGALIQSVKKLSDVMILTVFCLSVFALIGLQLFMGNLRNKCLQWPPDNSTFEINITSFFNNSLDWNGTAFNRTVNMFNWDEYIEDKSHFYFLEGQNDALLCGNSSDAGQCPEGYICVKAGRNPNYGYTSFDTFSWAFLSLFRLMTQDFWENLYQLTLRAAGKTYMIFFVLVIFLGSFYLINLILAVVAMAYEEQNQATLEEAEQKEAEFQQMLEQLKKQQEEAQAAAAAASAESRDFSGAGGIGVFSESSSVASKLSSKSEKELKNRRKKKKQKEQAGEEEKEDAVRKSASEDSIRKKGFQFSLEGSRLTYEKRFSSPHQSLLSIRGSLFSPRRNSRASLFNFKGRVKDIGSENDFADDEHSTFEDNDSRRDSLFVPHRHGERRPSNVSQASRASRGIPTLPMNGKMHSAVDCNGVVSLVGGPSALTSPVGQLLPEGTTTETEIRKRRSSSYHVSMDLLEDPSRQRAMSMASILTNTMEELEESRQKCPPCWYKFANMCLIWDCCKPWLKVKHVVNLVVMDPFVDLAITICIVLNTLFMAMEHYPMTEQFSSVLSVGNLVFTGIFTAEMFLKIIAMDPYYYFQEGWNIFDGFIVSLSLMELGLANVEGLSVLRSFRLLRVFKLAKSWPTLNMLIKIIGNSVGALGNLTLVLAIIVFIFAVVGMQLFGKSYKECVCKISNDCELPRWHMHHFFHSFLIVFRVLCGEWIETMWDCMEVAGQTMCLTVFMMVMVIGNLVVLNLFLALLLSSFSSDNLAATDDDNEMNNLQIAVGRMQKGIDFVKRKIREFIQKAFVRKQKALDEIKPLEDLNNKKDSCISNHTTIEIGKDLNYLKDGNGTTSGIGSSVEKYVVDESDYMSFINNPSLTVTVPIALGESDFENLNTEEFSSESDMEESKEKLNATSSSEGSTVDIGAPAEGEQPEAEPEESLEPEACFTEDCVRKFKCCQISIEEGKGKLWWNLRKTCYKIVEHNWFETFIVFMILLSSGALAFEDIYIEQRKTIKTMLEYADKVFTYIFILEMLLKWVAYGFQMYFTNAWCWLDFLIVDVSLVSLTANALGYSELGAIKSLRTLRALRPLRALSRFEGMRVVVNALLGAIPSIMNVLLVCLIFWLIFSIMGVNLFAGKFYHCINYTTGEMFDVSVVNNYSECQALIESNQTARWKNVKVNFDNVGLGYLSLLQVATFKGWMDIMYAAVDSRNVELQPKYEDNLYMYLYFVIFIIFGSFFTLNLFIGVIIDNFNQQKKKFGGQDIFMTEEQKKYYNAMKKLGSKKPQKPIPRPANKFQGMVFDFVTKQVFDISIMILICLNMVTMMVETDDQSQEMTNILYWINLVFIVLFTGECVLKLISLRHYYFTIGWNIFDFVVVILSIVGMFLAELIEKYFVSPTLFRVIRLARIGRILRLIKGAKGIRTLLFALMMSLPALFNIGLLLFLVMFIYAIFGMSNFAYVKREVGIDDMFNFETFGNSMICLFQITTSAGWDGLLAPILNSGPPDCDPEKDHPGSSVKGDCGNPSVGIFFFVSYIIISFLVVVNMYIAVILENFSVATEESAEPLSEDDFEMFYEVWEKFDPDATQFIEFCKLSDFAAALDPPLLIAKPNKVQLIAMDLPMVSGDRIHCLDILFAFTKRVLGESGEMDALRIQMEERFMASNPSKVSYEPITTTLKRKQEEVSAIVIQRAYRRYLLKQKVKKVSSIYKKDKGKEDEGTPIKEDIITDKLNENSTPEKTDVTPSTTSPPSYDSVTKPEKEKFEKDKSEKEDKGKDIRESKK
Chain of NaV1.8 (Q9Y5Y9 whole entry, looked up): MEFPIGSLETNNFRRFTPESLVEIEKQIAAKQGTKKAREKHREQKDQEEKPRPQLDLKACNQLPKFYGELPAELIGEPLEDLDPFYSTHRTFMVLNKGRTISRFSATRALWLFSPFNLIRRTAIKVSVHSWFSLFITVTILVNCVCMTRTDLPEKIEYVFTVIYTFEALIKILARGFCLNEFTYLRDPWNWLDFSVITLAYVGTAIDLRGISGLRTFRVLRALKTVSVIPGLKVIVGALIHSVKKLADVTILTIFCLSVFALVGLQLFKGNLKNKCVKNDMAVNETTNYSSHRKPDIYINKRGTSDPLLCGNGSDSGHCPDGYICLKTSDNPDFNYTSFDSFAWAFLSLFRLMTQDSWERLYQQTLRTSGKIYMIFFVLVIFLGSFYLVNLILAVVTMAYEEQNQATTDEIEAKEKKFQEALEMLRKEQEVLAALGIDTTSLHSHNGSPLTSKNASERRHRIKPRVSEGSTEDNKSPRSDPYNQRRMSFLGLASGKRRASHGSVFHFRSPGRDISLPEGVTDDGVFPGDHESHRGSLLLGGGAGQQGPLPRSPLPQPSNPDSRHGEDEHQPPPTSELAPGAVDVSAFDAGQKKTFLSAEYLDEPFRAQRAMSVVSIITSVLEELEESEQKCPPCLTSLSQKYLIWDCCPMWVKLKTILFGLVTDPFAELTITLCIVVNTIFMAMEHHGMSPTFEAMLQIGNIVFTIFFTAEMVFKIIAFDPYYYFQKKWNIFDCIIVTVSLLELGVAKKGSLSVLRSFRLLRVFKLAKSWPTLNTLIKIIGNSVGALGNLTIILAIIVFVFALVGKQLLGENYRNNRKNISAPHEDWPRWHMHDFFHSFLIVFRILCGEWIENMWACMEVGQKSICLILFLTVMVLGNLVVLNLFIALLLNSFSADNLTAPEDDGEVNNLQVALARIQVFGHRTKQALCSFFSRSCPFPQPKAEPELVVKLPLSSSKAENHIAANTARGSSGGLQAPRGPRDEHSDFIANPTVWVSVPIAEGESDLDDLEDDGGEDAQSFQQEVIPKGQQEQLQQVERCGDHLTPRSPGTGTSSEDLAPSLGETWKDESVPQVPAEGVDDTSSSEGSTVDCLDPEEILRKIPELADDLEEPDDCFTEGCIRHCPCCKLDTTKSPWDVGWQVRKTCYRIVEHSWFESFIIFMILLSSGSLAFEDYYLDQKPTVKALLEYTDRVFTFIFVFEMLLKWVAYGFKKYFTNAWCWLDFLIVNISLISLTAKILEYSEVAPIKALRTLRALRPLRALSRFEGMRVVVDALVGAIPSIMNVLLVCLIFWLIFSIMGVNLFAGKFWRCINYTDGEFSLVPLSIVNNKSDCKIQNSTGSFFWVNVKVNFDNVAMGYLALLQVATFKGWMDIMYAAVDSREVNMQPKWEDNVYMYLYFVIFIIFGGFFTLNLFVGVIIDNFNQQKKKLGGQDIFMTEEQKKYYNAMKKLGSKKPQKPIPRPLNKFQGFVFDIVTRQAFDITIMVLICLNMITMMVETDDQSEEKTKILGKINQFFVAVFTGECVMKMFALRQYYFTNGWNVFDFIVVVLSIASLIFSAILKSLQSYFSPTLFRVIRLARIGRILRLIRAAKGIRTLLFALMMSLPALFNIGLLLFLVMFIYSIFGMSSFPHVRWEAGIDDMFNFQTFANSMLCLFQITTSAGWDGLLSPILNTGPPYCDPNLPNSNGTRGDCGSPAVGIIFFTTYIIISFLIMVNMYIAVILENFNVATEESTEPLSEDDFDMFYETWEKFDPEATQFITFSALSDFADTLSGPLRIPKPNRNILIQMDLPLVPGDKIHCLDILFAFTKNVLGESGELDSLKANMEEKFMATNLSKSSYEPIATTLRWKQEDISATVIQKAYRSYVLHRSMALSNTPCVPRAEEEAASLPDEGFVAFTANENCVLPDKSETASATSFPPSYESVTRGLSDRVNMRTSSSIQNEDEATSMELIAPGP

The test system of one data set is Nav1.4. Type of data set: cell-based, Chinese Hamster.
Details: not given
Turning to `NC1=N[C@H](O)[C@H]2[C@H]3O[C@]4(O)O[C@@H]([C@@H](O)[C@@]2(N1)[C@@H]4O)[C@]3(O)CO` [TTX, tetrodotoxin], the “block of [14C] Guanidine influx by TTX” value was “Guanidine influx was completely”.

In a further data set the test system is Nav1.4 and 1.5. Type of data set: cell-based, rat.
Details: not given
As for `NC1=N[C@H](O)[C@H]2[C@H]3O[C@]4(O)O[C@@H]([C@@H](O)[C@@]2(N1)[C@@H]4O)[C@]3(O)CO` [TTX, tetrodotoxin], the “block of [14C] Guanidine influx by TTX” value is “partially blocked by TTX (Nav1.5”.

Another data set concerns the target NaV1.8 (Homo sapiens, UniProt Q9Y5Y9). Type of data set: cell-based.
Details: not given
On to `NC1=N[C@H](O)[C@H]2[C@H]3O[C@]4(O)O[C@@H]([C@@H](O)[C@@]2(N1)[C@@H]4O)[C@]3(O)CO` [TTX, tetrodotoxin], for which the “block of [14C] Guanidine influx by TTX” value was “TTX partially blocked influx”.

System in another data set: not given
Details: not given
As for `CCCCCN1C(=O)C(O)(c2ccc3c(c2)OCO3)c2cccc(F)c21` (centres unmarked), the melting point lay within 102 to 104 °C.

`CC(c1ccccc1)N1C(=O)C(O)(c2ccc3c(c2)OCO3)c2ccccc21` (centres unmarked) yielded a melting point of 148 to 150 °C.

Turning to `O=C1N(CC2CC2)c2ccccc2C1(O)c1ccc2c(c1)OCO2` (centres unmarked), the melting point is 142 to 145 °C.

Compound `O=C(c1ccc(Cl)cc1)N1C(=O)C(O)(c2ccccc2)c2ccccc21` (centres unmarked) came in with a melting point of 141 to 143 °C.

Take `CCCCCN1C(=O)C(c2ccc3c(c2)OCO3)(c2cc3c(cc2O)OCO3)c2ccccc21` (centres unmarked): the melting point was 75 to 76 °C.

Turning to `CCCCCC1(O)C(=O)N(c2ccc3c(c2)OCO3)c2ccccc21` (centres unmarked), the melting point lay within 88 to 90 °C.

`O=C1N(Cc2ccc(Cl)cc2)c2ccc(F)cc2C1(O)c1ccc2c(c1)OCO2` (centres unmarked) returned a melting point of 145 to 147 °C.

With `O=C1N(Cc2ccc(Cl)cc2)c2ccc(OC(F)(F)F)cc2C1(O)c1ccc2c(c1)OCO2` (centres unmarked), the melting point was in the range of 138 to 140 °C.

In turn, `CCCCCN1C(=O)C(c2ccc3c(c2)OCO3)c2c(Cl)ccc(Cl)c21` (centres unmarked) registered a melting point of 84 to 86 °C.

The compound `CCCCCN1C(=O)C(NC(=O)OC(C)(C)C)c2ccccc21` (centres unmarked) had a melting point of 145 to 147 °C.

`O=C1N(Cc2ccccn2)c2cccc(Br)c2C1(O)c1cc2c(cc1O)OCC2` (centres unmarked) yielded a melting point greater than 225 °C.

`CCCCCCN1C(=O)C(O)(c2ccc3c(c2)OCO3)c2ccccc21` (centres unmarked) came in with a melting point of 88 to 90 °C.

Take `O=C1N(Cc2cccs2)c2ccccc2C1(O)c1ccc2c(c1)OCO2` (centres unmarked): the melting point was 141 to 142 °C.

In turn, `O=C1N(Cc2ccc(Cl)cc2)c2ccc(Br)cc2C1(O)c1ccc2c(c1)OCO2` (centres unmarked) displayed a melting point of 179 to 180 °C.

On to `Cc1ccc2c(c1)C(O)(CC(=O)c1ccco1)C(=O)N2Cc1ccc(Cl)cc1` (centres unmarked), for which the melting point lay in the range of 183 to 185 °C.

Consider `O=C(CC1(O)C(=O)N(Cc2ccc3c(c2)OCO3)c2ccccc21)c1ccco1` (centres unmarked), for which the melting point was 175 to 177 °C.

In turn, `CCCCCN1C(=O)C(O)(c2ccc3ocnc3c2)c2ccccc21` (centres unmarked) returned a melting point of 189 to 191 °C.

Regarding `O=C1N(Cc2ccc(Cl)s2)c2ccccc2C1(O)c1ccc2c(c1)OCO2` (centres unmarked), the melting point fell in the range of 164 to 165 °C.

Compound `CCCCCN1C(=O)C(c2cc3c(cc2O)OCO3)c2ccccc21` (centres unmarked) gave a melting point of 101 to 103 °C.

`O=C1N(Cc2ccc(-n3cccc3)cc2)c2ccccc2C1(O)c1ccc2c(c1)OCO2` (centres unmarked) returned a melting point of 195 to 198 °C.

`O=C(CC1(O)C(=O)N(Cc2ccc(Cl)cc2)c2ccccc21)c1ccc(F)cc1` (centres unmarked): the melting point lay in the range of 156 to 160 °C.

Compound `O=C1c2ccccc2CC1C1(O)C(=O)N(Cc2ccc(Cl)cc2)c2ccccc21` (centres unmarked) came in with a melting point of 154 to 157 °C.

The compound `O=C1N(Cc2cccc(C(F)(F)F)c2)c2ccccc2C1(O)c1ccc2c(c1)OCO2` (centres unmarked) registered a melting point of 133 to 135 °C.

On to `CCCCCN1C(=O)C(c2ccc3c(c2)OCO3)c2cccc(F)c21` (centres unmarked), for which the melting point was 95 to 97 °C.

For `O=C(CC1(O)C(=O)N(Cc2ccc(Cl)cc2)c2ccccc21)c1ccc[nH]1` (centres unmarked), the melting point was 202 °C (dec.).

For the compound `CCCCCN1C(=O)C(O)(c2ccc3c(c2)OCO3)c2c(Cl)ccc(Cl)c21` (centres unmarked), the melting point lay in the range of 82 to 84 °C.

`O=C1N(Cc2cc3c(cc2Cl)OCO3)c2ccccc2C1(O)c1ccc2c(c1)OCO2` (centres unmarked) returned a melting point of 153 to 155 °C.

Take `O=C1N(Cc2ccc(C(F)(F)F)o2)c2ccc(F)cc2C1(CO)c1cc2c(cc1O)OCO2` (centres unmarked): the melting point was 92 to 95 °C.

The compound `O=C1N(Cc2ccc(Cl)cc2)c2ccccc2C1(O)c1cc(OCc2ccccc2)ccc1O` (centres unmarked) came in with a melting point of 172 to 175 °C.

As to `O=C(CC1(O)C(=O)N(Cc2ccc3c(c2)OCO3)c2ccccc21)c1cccs1` (centres unmarked), the melting point is 186 to 187 °C.

The compound `O=C1Nc2c(-c3ccc4c(c3)OCO4)cccc2C1(O)c1ccc2c(c1)OCO2` (centres unmarked) showed a melting point of 112 to 115 °C.

`O=C1N(Cc2cccc3cccnc23)c2ccccc2C1(O)c1ccc2c(c1)OCO2` (centres unmarked) registered a melting point of 187 to 189 °C.

`CCCCCN1C(=O)C(O)(c2ccc3c(c2)OCO3)c2cc(C)cc(C)c21` (centres unmarked): the melting point fell in the range of 120 to 121 °C.

For the compound `O=C(CC1(O)C(=O)N(Cc2ccc(Cl)cc2)c2ccccc21)c1cc2ccccc2o1` (centres unmarked), the melting point was 185 °C (dec.).

As to `CC(C)CCN1C(=O)C(O)(c2ccc3c(c2)OCO3)c2ccccc21` (centres unmarked), the melting point is 129 to 131 °C.

Regarding `O=C1N(Cc2cccc3ccccc23)c2ccccc2C1(O)c1ccc2c(c1)OCO2` (centres unmarked), the melting point lay within 93 to 95 °C.

Compound `O=C1N(CCCCCCl)c2ccccc2C1(O)c1ccc2c(c1)OCO2` (centres unmarked) gave a melting point of 131 to 132 °C.

As for `O=C1N(Cc2ccc(Cl)cc2)c2ccccc2C1(O)CC1OCCO1` (centres unmarked), the melting point was in the range of 166 to 169 °C.

As for `CCCCCN1C(=O)C(O)(c2ccc3c(c2)OCO3)c2ccc(Cl)cc21` (centres unmarked), the melting point was in the range of 103 to 105 °C.

In turn, `O=C1C(c2ccc3c(c2)OCO3)c2ccccc2N1CCC1CC1` (centres unmarked) displayed a melting point of 87 to 89 °C.

The compound `O=C1N(Cc2ccc3c(c2)OCO3)c2ccccc2C1(O)c1ccc2ccoc2c1` (centres unmarked) registered a melting point greater than 200 °C.

Turning to `COc1ccc(C2(O)C(=O)N(Cc3ccc(Cl)cc3)c3ccccc32)cn1` (centres unmarked), the melting point lay within 182 to 184 °C.

`CCCCCN1C(=O)C(CO)(c2cc3c(cc2O)OCO3)c2ccccc21` (centres unmarked) registered a melting point of 125 to 127 °C.

With `COc1ccc(CN2C(=O)C(O)(c3ccc4c(c3)OC(F)(F)O4)c3ccccc32)cc1` (centres unmarked), the melting point is 88 to 90 °C.

In turn, `CCCCCN1C(=O)C(O)(c2ccc3c(c2)OCO3)c2cccc(C(F)(F)F)c21` (centres unmarked) returned a melting point of 115 to 117 °C.

The compound `CCCCC(C)N1C(=O)C(O)(c2ccc3c(c2)OCO3)c2ccccc21` (centres unmarked) displayed a melting point of 152 to 154 °C.

Regarding `COc1ccc(C2(O)C(=O)N(Cc3ccc(Cl)cc3)c3ccccc32)cc1OC` (centres unmarked), the melting point was in the range of 155 to 158 °C.

On to `O=C1N(Cc2ccc(Cl)cc2)c2ccccc2C1(O)c1ccc2ncsc2c1` (centres unmarked), for which the melting point lay in the range of 185 to 187 °C.

Turning to `CCCCCN1C(=O)C(O)(c2ccc3c(c2)OCO3)c2cccc(-c3ccc(F)cc3)c21` (centres unmarked), the melting point was in the range of 149 to 151 °C.

Compound `O=C1C(c2ccc3c(c2)OCO3)c2ccccc2N1Cc1ccc(Cl)cc1` (centres unmarked) had a melting point of 161 to 163 °C.

As to `O=C1N(Cc2ccccc2I)c2ccccc2C1(O)c1ccc2c(c1)OCO2` (centres unmarked), the melting point lay in the range of 130 to 132 °C.

The compound `CCCCCN1C(=O)C(O)(c2cc3c(cc2CO)OCO3)c2ccccc21` (centres unmarked) registered a melting point of 120 to 122 °C.

`O=C1N(Cc2ccc(Cl)cc2)c2ccccc2C1(O)c1ccc2c(c1)OC(F)(F)O2` (centres unmarked) had a melting point of 150 to 152 °C.

`CCCCCN1C(=O)C(c2ccc3c(c2)OCO3)c2cc(C)cc(C)c21` (centres unmarked) yielded a melting point of 111 to 114 °C.

Turning to `O=C1N(Cc2ccc(Cl)cc2)c2ccccc2C1(O)c1ccc2ccoc2c1` (centres unmarked), the melting point is > 200 °C (dec.).

Consider `O=C(CC1(O)C(=O)N(CCc2ccc(Cl)cc2)c2ccccc21)c1ccco1` (centres unmarked), for which the melting point lay within 128 to 132 °C.

With `O=C(CC1(O)C(=O)N(Cc2ccc(Cl)cc2)c2ccccc21)c1ccccn1` (centres unmarked), the melting point is 185 °C (dec.).

For `CCCCCN1C(=O)C(N)(CC(=O)c2cccs2)c2ccccc21` (centres unmarked), the melting point was 167 to 169 °C.

In turn, `O=C1N(CCC2CC2)c2ccccc2C1(O)c1ccc2c(c1)OCO2` (centres unmarked) yielded a melting point of 110 to 112 °C.

`O=C1N(Cc2ccc(Cl)c(C(F)(F)F)c2)c2ccccc2C1(O)c1ccc2c(c1)OCO2` (centres unmarked) yielded a melting point of 133 to 135 °C.

In the case of `O=C1N(Cc2ccc(Cl)cc2)c2ccccc2C1(O)C#Cc1ccc(F)cc1` (centres unmarked), the melting point lay in the range of 153 to 154 °C.

Compound `COc1ccc2c(c1)C(O)(c1ccc3c(c1)OCO3)C(=O)N2Cc1ccc(F)cc1` (centres unmarked) had a melting point of 127 to 129 °C.

`CCCCCN1C(=O)C(O)(c2ccc3c(c2)OCO3)c2c(Cl)cccc21` (centres unmarked) showed a melting point of 140 to 142 °C.

In turn, `O=C1N(Cc2ccc(Cl)cc2)c2ccccc2C1(O)c1ccc2c(c1)OCCCO2` (centres unmarked) gave a melting point of 188 to 190 °C.

On to `O=C1N(CCCC(F)(F)F)c2ccccc2C1(O)c1ccc2c(c1)OCO2` (centres unmarked), for which the melting point lay within 119 to 121 °C.

Take `O=C(CC1(O)C(=O)N(c2ccc(F)cc2)c2ccccc21)c1ccco1` (centres unmarked): the melting point was 185 °C (dec.).

Turning to `O=C1N(Cc2ccc(Cl)cc2)c2ccccc2C1(O)c1cncnc1` (centres unmarked), the melting point was in the range of 155 to 157 °C.

`COc1ccccc1CN1C(=O)C(O)(c2ccc3c(c2)OCO3)c2ccccc21` (centres unmarked) yielded a melting point of 148 to 150 °C.

A further data set has as its target Nav1.2 (Rattus norvegicus, UniProt P04775).
Details: not given
For the compound `NC1=N[C@H](O)[C@H]2[C@H]3O[C@]4(O)O[C@@H]([C@@H](O)[C@@]2(N1)[C@@H]4O)[C@]3(O)CO` [TTX, tetrodotoxin], the “block of [14C] Guanidine influx by TTX” value was “Guanidine influx was completely”.

In the next data set the test system is peripheral nerve injury. To be noted: intravenous; concentrations that do not affect general behaviour and motor function; cited from earlier work.
For the compound `CCN(CC)CC(=O)Nc1c(C)cccc1C` [lidocaine], the “effect on ectopic activity in the injured nerve” value is given as “suppress the ectopic activity” and the “effect on tactile allodynia” value is listed as “reverse the tactile allodynia”.
